Key:
[1] = Antagonist activity at smoothened expressed in mouse Shh Light2 cells co-expressing Gli-dependent reporter gene assessed as inhibition of Hh pathway
[2] = target: T1, Smoothened homolog (Homo sapiens, UniProt Q99835); test: Displacement of [125I]-PA cyclopamine from smoothened expressed in african green monkey COS-1 cells after 10 mins by autoradiography
[3] = target: T1, Smoothened homolog; test: Antagonist activity at smoothened expressed in mouse Shh Light2 cells co-expressing Gli-dependent reporter gene assessed as inhibition of Hh pathway

T1 sequence (Q99835 whole entry): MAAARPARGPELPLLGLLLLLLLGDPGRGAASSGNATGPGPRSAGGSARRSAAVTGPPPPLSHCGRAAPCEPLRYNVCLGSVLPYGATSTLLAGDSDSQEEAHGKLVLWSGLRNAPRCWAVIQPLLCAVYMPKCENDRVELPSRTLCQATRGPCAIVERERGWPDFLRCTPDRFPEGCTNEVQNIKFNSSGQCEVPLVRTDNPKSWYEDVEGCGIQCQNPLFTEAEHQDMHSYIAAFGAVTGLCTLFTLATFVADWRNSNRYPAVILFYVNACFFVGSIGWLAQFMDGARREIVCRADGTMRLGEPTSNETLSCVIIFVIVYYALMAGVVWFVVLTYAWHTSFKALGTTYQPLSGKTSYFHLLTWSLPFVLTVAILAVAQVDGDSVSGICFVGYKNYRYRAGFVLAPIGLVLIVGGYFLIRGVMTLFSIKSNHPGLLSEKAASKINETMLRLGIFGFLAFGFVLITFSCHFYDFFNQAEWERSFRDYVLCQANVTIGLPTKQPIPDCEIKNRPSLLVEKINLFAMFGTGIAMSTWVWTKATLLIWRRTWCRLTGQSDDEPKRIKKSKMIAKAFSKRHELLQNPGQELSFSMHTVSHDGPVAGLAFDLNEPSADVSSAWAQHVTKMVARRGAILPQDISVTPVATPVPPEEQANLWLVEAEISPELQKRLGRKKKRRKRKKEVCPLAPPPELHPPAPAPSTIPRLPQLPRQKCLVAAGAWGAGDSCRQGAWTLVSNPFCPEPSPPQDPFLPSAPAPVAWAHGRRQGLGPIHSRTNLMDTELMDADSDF

SMILES: O=C(Nc1c(Cl)cc(C(F)(F)F)cc1Cl)N1CCn2c(c(O)n([C@H]3C[C@@H]3c3ccccc3)c2=O)C1
- IC50 [1]: 330 nM

SMILES: CCCCn1c(O)c2n(c1=O)CCN(C(=O)Nc1ccccc1-c1ccccc1)C2
- IC50 [2]: > 2500 nM

SMILES: O=C(Nc1ccnn1-c1ccccc1)N1CCn2c(c(O)n([C@H]3C[C@@H]3c3ccccc3)c2=O)C1
- IC50 [1]: 16 nM

SMILES: COC(=O)c1cccc(NC(=O)N2CCn3c(c(O)n([C@H]4C[C@@H]4c4ccccc4)c3=O)C2)c1Cl
- IC50 [1]: 2200 nM

SMILES: O=C(Nc1ccc(F)c(Cl)c1Cl)N1CCn2c(c(O)n([C@H]3C[C@@H]3c3ccccc3)c2=O)C1
- IC50 [1]: 510 nM

SMILES: O=C(Nc1cc(Cl)cc(Cl)c1)N1CCn2c(c(O)n([C@H]3C[C@@H]3c3ccccc3)c2=O)C1
- IC50 [1]: 780 nM

SMILES: O=C(Nc1cccnc1-c1ccsc1)N1CCn2c(c(O)n([C@H]3C[C@@H]3c3ccccc3)c2=O)C1
- IC50 [1]: 240 nM

SMILES: CN(C(=O)N1CCn2c(c(O)n([C@H]3C[C@@H]3c3ccccc3)c2=O)C1)c1ccccc1-c1ccccc1
- IC50 [1]: 1600 nM

SMILES: O=C(Nc1cccnc1-c1ccccc1)N1CCn2c(c(O)n([C@H]3C[C@@H]3c3ccccc3)c2=O)C1
- IC50 [1]: 28 nM

SMILES: CCCCCCNC(=O)N1CCn2c(c(O)n([C@H]3C[C@@H]3c3ccccc3)c2=O)C1
- IC50 [1]: 1500 nM

SMILES: O=C(Nc1cccc(Cl)c1Cl)N1CCn2c(c(O)n([C@H]3C[C@@H]3c3ccccc3)c2=O)C1
- IC50 [1]: 340 nM

SMILES: O=C(Nc1ccccc1-c1ccccc1)N1CCN2C(=O)N([C@H]3C[C@@H]3c3ccccc3)CC2C1 (stereo not given in full)
- IC50 [1]: 3000 nM

SMILES: O=C(Nc1ccccc1-c1ccccc1)N1CCn2c(c(O)n(-c3cccc(-c4ccccc4)c3)c2=O)C1
- IC50 [2]: > 2500 nM
- IC50 [1]: 2500 nM

SMILES: O=C(Nc1cccnc1-c1cccc(Cl)c1)N1CCn2c(c(O)n([C@H]3C[C@@H]3c3ccccc3)c2=O)C1
- IC50 [1]: 18 nM

SMILES: Cc1c(Cl)cccc1NC(=O)N1CCn2c(c(O)n([C@H]3C[C@@H]3c3ccccc3)c2=O)C1
- IC50 [1]: 370 nM

SMILES: Cc1cc(C#N)cc(Cl)c1NC(=O)N1CCn2c(c(O)n([C@H]3C[C@@H]3c3ccccc3)c2=O)C1
- IC50 [1]: 150 nM

SMILES: CC(C)c1ccccc1NC(=O)N1CCn2c(c(O)n([C@H]3C[C@@H]3c3ccccc3)c2=O)C1
- IC50 [1]: 180 nM

SMILES: Cn1cc(-c2ncccc2NC(=O)N2CCn3c(c(O)n([C@H]4C[C@@H]4c4ccccc4)c3=O)C2)cn1
- IC50 [1]: 1200 nM

SMILES: O=C(Nc1ccccc1-c1ccccc1)N1CCn2c(c(O)n(-c3cccc4ccccc34)c2=O)C1
- IC50 [2]: > 2500 nM

SMILES: CN(C)C(=O)N1CCn2c(c(O)n([C@H]3C[C@@H]3c3ccccc3)c2=O)C1
- IC50 [2]: > 2500 nM

SMILES: Cc1cccc(Cl)c1NC(=O)N1CCn2c(c(O)n([C@H]3C[C@@H]3c3ccccc3)c2=O)C1
- IC50 [1]: 530 nM

SMILES: O=C(Nc1ccccc1-c1ccccc1)c1ccc2c(c1)C(=O)N([C@H]1C[C@@H]1c1ccccc1)C2=O
- IC50 [1]: 4600 nM

SMILES: CCCCN(CCCC)C(=O)N1CCn2c(c(O)n([C@H]3C[C@@H]3c3ccccc3)c2=O)C1
- IC50 [1]: 1900 nM

SMILES: O=C(Nc1ccccc1-c1ccccc1)N1CCn2c(c(O)n(CCc3ccccc3)c2=O)C1
- IC50 [1]: 5000 nM

SMILES: CC(C)(C)C(=O)N1CCn2c(c(O)n([C@H]3C[C@@H]3c3ccccc3)c2=O)C1
- IC50 [1]: 4500 nM

SMILES: O=C(Nc1ccncc1-c1ccccc1)N1CCn2c(c(O)n([C@H]3C[C@@H]3c3ccccc3)c2=O)C1
- IC50 [1]: 89 nM

SMILES: CS(=O)(=O)c1cc(Cl)c(NC(=O)N2CCn3c(c(O)n([C@H]4C[C@@H]4c4ccccc4)c3=O)C2)c(Cl)c1
- IC50 [1]: 53 nM

SMILES: O=C(NCc1ccco1)N1CCn2c(c(O)n([C@H]3C[C@@H]3c3ccccc3)c2=O)C1
- IC50 [2]: > 2500 nM

SMILES: O=C(NC1CCCCC1)N1CCn2c(c(O)n([C@H]3C[C@@H]3c3ccccc3)c2=O)C1
- IC50 [1]: 600 nM

SMILES: O=C(C1CCCCC1)N1CCn2c(c(O)n([C@H]3C[C@@H]3c3ccccc3)c2=O)C1
- IC50 [2]: > 1500 nM

SMILES: O=C(Nc1ccccc1-c1ccccc1)N1CCn2c(c(O)n(Cc3ccccc3)c2=O)C1
- IC50 [2]: > 2500 nM

SMILES: CC(=O)N1CCn2c(c(O)n([C@H]3C[C@@H]3c3ccccc3)c2=O)C1
- IC50 [2]: > 1500 nM

SMILES: O=c1n2c(c(O)n1[C@H]1C[C@@H]1c1ccccc1)CN(CC1CCCCC1)CC2
- IC50 [2]: > 2500 nM

SMILES: COc1cccc(-c2ncccc2NC(=O)N2CCn3c(c(O)n([C@H]4C[C@@H]4c4ccccc4)c3=O)C2)c1
- IC50 [1]: 82 nM

SMILES: O=C(Nc1ccccc1-c1ccccc1)N1CCn2c(c(O)n(C3CC34CCCCC4)c2=O)C1 (stereo not given)
- IC50 [2]: > 2500 nM
- IC50 [3]: > 2500 nM

SMILES: O=C(Nc1ccc2c(c1)OCO2)N1CCn2c(c(O)n([C@H]3C[C@@H]3c3ccccc3)c2=O)C1
- IC50 [1]: 2700 nM

SMILES: O=C(Nc1ccccc1-c1ccccc1)N1CCn2c(c(O)n(C3Cc4ccccc4C3)c2=O)C1
- IC50 [1]: 320 nM

SMILES: COC(=O)N1CCn2c(c(O)n([C@H]3C[C@@H]3c3ccccc3)c2=O)C1
- IC50 [2]: > 1500 nM

— BindingDB's records for doi:10.1016/j.bmcl.2011.06.024 (Merck Research Laboratories, 2011)
